In US20240124408A1 (Sanofi, priority 2020, published 2024):
Structures can show the parent of a compound that is named as a salt.

What was measured:
Format in all cases: cell-based
human TRPM8 [1] = target: T1, human TRPM8 (Homo sapiens, UniProt Q7Z2W7); test: In vitro human TRPM8 fluorescence calcium flux assay (recombinant CHO cells, Fluo4-AM, FDSS6000); conditions: recombinant CHO cells expressing human TRPM8; menthol-related EC50, normalized to 100 μM menthol
T1 construct: expressed in transfected cells; host or cells: CHO (p658 mammalian expression vector)
Procedure, shortened: (§1)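 CHO cells stably expressing pig or human TRPM8, loaded with 2 μM Fluo4-AM in HBSS/20 mM HEPES/0.1% BSA/2.5 mM probenecid for 1 h at RT. Intracellular calcium read kinetically for 3 min after compound addition. EC50 from sixteen-point curves, normalized to 100 μM menthol maximal response.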

pig TRPM8 [2] = target: T2, pig TRPM8 (Sus scrofa, UniProt F1SM15); test: In vitro pig TRPM8 fluorescence calcium flux assay (recombinant CHO cells, Fluo4-AM, FDSS6000); conditions: recombinant CHO cells expressing pig TRPM8; menthol-related EC50, normalized to 100 μM menthol
T2 construct: expressed in transfected cells; host or cells: CHO (pcDNA5/FRT/TO vector; hygromycin B and blasticidin selection)
Procedure, shortened: as §1

human TRPM8 [3] = target: T1, human TRPM8; test: In vitro human TRPM8 automated patch-clamp assay (SyncroPatch 384PE, CHO cells); conditions: CHO cells expressing human TRPM8, 28° C.
Procedure, shortened: (§2)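 Whole-cell automated patch clamp on engineered CHO lines at 28 °C, held at −60 mV, with −80 to +80 mV ramps every 5 s; one compound concentration per well. Peak current minus pre-addition baseline was normalised to no-compound control and Emax, and EC50 was fitted; 200 μM menthol wells served as control.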

pig TRPM8 [4] = target: T2, pig TRPM8; test: In vitro pig TRPM8 automated patch-clamp assay (SyncroPatch 384PE, CHO cells); conditions: CHO cells expressing pig TRPM8, 28° C.
Procedure, shortened: as §2

T1 sequence (Q7Z2W7 whole entry): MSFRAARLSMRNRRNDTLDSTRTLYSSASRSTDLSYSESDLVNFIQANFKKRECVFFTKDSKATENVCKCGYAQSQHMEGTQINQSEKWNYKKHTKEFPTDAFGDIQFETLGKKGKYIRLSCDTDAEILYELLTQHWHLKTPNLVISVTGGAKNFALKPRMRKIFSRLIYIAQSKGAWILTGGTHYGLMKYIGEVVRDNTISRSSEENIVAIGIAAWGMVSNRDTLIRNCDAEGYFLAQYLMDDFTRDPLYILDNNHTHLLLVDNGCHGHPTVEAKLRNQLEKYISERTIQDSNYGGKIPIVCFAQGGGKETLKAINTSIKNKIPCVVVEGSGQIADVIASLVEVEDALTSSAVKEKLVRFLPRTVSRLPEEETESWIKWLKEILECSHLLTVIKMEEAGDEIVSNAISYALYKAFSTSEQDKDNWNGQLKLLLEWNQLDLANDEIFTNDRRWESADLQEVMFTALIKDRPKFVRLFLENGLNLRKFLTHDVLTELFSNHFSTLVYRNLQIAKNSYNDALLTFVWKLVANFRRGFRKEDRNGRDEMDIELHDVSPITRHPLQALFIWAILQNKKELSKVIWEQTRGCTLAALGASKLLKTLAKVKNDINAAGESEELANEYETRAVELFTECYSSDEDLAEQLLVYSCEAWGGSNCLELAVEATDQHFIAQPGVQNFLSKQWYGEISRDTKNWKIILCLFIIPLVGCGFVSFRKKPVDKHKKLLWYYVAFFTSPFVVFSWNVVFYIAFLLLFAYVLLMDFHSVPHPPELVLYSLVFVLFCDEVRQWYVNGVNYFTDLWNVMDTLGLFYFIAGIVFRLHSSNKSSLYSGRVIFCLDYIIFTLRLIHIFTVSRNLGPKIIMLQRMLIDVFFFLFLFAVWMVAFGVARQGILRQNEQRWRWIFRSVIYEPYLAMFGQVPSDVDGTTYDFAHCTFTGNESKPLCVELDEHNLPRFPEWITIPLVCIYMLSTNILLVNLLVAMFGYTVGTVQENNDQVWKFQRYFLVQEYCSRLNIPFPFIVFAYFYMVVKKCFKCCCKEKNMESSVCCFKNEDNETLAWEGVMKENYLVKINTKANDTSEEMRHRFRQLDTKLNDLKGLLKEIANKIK
T2 sequence (F1SM15 1-1104): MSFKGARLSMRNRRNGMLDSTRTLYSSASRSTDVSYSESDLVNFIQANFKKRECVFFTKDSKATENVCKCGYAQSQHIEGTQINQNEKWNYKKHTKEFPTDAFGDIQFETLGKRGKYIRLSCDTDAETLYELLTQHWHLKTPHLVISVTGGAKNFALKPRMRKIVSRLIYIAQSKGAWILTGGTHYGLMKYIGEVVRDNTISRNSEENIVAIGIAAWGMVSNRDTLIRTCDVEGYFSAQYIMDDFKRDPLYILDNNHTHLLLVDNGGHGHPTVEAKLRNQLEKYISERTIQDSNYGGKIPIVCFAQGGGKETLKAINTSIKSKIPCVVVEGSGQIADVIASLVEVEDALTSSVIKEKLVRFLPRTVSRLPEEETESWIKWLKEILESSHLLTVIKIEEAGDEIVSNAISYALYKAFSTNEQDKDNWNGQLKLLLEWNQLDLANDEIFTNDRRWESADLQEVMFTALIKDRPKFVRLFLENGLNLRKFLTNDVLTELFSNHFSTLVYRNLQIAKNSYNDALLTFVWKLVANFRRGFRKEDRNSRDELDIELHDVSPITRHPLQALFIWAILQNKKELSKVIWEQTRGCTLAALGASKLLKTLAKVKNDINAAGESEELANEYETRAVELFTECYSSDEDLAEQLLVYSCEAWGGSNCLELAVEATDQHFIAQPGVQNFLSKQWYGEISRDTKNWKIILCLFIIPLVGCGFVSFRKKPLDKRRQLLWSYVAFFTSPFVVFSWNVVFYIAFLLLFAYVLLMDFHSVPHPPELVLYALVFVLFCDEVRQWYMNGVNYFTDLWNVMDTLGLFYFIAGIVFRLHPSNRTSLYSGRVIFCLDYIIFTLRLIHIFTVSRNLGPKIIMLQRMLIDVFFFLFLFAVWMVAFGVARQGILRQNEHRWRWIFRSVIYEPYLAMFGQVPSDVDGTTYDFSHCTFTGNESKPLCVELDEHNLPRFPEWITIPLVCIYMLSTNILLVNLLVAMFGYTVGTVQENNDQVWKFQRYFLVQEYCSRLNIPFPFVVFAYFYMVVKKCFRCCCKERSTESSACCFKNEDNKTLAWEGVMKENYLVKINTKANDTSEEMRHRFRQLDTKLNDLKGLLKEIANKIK

SMILES | EC50 (human TRPM8 [1]) [nM] | EC50 (pig TRPM8 [2]) [nM] | EC50 (human TRPM8 [3]) [nM] | EC50 (pig TRPM8 [4]) [nM]
CC(C)[C@@H]1CC[C@@H](C)C[C@@]1(O)C(=O)NCC(O)c1ccc(F)cc1 (stereo partly drawn) [Example 158, (1S,2S,5R)-N-[2-(4-fluorophenyl)-2-hydroxy-ethyl]-1-hydroxy-2-isopropyl-5-methyl-cyclohexanecarboxamide] | 7 | 3 | 1900 | 940
CC(C)[C@@H]1CC[C@@H](C)C[C@@]1(O)C(=O)NC[C@H](O)c1cccc(CO)c1 [Example 43, (1S,2S,5R)-1-hydroxy-N-((2R)-hydroxy-2-(3-(hydroxymethyl)phenyl)ethyl)-2-isopropyl-5-methylcyclohexane-1-carboxamide] | 191 | 56.9 | 4000 | 3970
CC(C)[C@@H]1CC[C@@H](C)C[C@@]1(O)C(=O)NCCc1ccc(O)cc1 [Example 117, (1S,2S,5R)-1-hydroxy-N-[2-(4-hydroxyphenyl)ethyl]-2-isopropyl-5-methyl-cyclohexanecarboxamide] | 17.8 | 4.5 | 2500 | 2330
COc1cc(C=O)ccc1OC(=O)CNC(=O)[C@]1(O)C[C@H](C)CC[C@H]1C(C)C [Example 68, 4-formyl-2-methoxyphenyl ((1S,2S,5R)-1-hydroxy-2-isopropyl-5-methylcyclohexane-1-carbonyl)glycinate] | 44 | 32 | 2690 | 3640
Cc1cccc(C(F)(F)CNC(=O)[C@]2(O)C[C@H](C)CC[C@H]2C(C)C)c1 [Example 187, (1S,2S,5R)—N-[2,2-difluoro-2-(3-methylphenyl)ethyl]-1-hydroxy-2-isopropyl-5-methyl-cyclohexanecarboxamide] | 33.8 | 6.2 | 510 | 550
CC(C)[C@@H]1CC[C@@H](C)C[C@@]1(O)C(=O)NCCc1cccc(C#N)c1 [Example 48, (1S,2S,5R)—N-(3-cyanophenethyl)-1-hydroxy-2-isopropyl-5-methylcyclohexane-1-carboxamide] | 13.5 | 5 | 2630 | 4600
CC(C)[C@@H]1CC[C@@H](C)C[C@@]1(O)C(=O)NCC1(O)CCc2ccccc21 (stereo partly drawn) [Example 23, (1S,2S,5R)-1-hydroxy-N-((1-hydroxy-2,3-dihydro-1H-inden-1-yl)methyl)-2-isopropyl-5-methylcyclohexane-1-carboxamide] | 7 | 6 | 500 | 1070
CC(C)[C@@H]1CC[C@@H](C)C[C@@]1(O)C(=O)NCC(=O)c1ccccc1O [Example 38, (1S,2S,5R)-1-hydroxy-N-(2-(2-hydroxyphenyl)-2-oxoethyl)-2-isopropyl-5-methylcyclohexane-1-carboxamide] | 2.4 | 1.8 | 470 | 276
CC(C)[C@@H]1CC[C@@H](C)C[C@@]1(O)C(=O)N[C@@H]1COc2ccccc2C1 [Example 94, (1S,2S,5R)—N-((3S)-chroman-3-yl)-1-hydroxy-2-isopropyl-5-methylcyclohexane-1-carboxamide] | 6.4 | 7.7 | 1070 | 1500
CC(C)[C@@H]1CC[C@@H](C)C[C@@]1(O)C(=O)NC[C@@H](O)c1cccc(O)c1 [Example 42, (1S,2S,5R)-1-hydroxy-N-((2S)-hydroxy-2-(3-hydroxyphenyl)ethyl)-2-isopropyl-5-methylcyclohexane-1-carboxamide] | 12.4 | 3.8 | 910 | 921
CC(C)[C@@H]1CC[C@@H](C)C[C@@]1(O)C(=O)NCCc1cccc(C(=O)OCCN)c1 [Example 16, 2-aminoethyl 3-(2-((1S,2S,5R)-1-hydroxy-2-isopropyl-5-methylcyclohexane-1-carboxamido)ethyl) benzoate hydrochloride] | 16 | 13 | 1290 | 2370
CC(C)[C@@H]1CC[C@@H](C)C[C@@]1(O)C(=O)NCCc1ccccc1OCC[N+](C)(C)C [Example 11, 2-(2-(2-((1S,2S,5R)-1-hydroxy-2-isopropyl-5-methylcyclohexane-1-carboxamido)ethyl)phenoxy)-N,N,N-trimethylethan-1-aminium iodide] | 148 | 298 | 3700 | 4900
CC(C)[C@@H]1CC[C@@H](C)C[C@@]1(O)C(=O)NCC(F)c1ccccc1 (stereo partly drawn) [Example 5, (1S,2S,5R)—N-(2-fluoro-2-phenylethyl)-1-hydroxy-2-isopropyl-5-methylcyclohexane-1-carboxamide] | 1.3 | 0.7 | 950 | 478
CC(C)[C@@H]1CC[C@@H](C)C[C@@]1(O)C(=O)NC[C@@H](OCC(=O)O)c1ccccc1 [Example 55, 2-((S)-2-((1S,2S,5R)-1-hydroxy-2-isopropyl-5-methylcyclohexane-1-carboxamido)-1-phenylethoxy)acetic acid] | 102 | 54.3 | 4470 | 3550
COC(=O)c1cccc(C(O)CNC(=O)[C@]2(O)C[C@H](C)CC[C@H]2C(C)C)c1 (stereo partly drawn) [Example 34, methyl 3-(1-hydroxy-2-((1S,2S,5R)-1-hydroxy-2-isopropyl-5-methylcyclohexane-1-carboxamido)ethyl)benzoate] | 97 | 80 | 4590 | 3210
[2H]C(O)(CNC(=O)[C@]1(O)C[C@H](C)CC[C@H]1C(C)C)c1ccccc1 (stereo partly drawn) [Example 72, (1S,2S,5R)-1-hydroxy-N-(2-hydroxy-2-phenylethyl-2-d)-2-isopropyl-5-methylcyclohexane-1-carboxamide] | 3 | 2 | 1390 | 790
COC(=O)COc1cccc(CCNC(=O)[C@]2(O)C[C@H](C)CC[C@H]2C(C)C)c1 [Example 64, methyl 2-(3-(2-((1S,2S,5R)-1-hydroxy-2-isopropyl-5-methylcyclohexane-1-carboxamido)ethyl)phenoxy)acetate] | 16.6 | 8.3 | 5820 | 3870
COC(=O)c1cccc(CCNC(=O)[C@]2(O)C[C@H](C)CC[C@H]2C(C)C)c1 [Example 107, methyl 3-(2-((1S,2S,5R)-1-hydroxy-2-isopropyl-5-methylcyclohexane-1-carboxamido)ethyl)benzoate] | 42.8 | 21.7 | 3800 | 2440
CC(C)[C@@H]1CC[C@@H](C)C[C@@]1(O)C(=O)NCC(C(=O)OCC(C)(C)N)c1ccccc1 (stereo partly drawn) [Example 73, 2-amino-2-methylpropyl 3-((1S,2S,5R)-1-hydroxy-2-isopropyl-5-methylcyclohexane-1-carboxamido)-2-phenylpropanoate hydrochloride] | 4 | 8 | 690 | 1120
CC(C)[C@@H]1CC[C@@H](C)C[C@@]1(O)C(=O)NC[C@@H](F)c1ccccc1 [Example 180, (1S,2S,5R)—N-((2S)-2-fluoro-2-phenylethyl)-1-hydroxy-2-isopropyl-5-methylcyclohexane-1-carboxamide] | 3 | 1.2 | 1700 | 1010
CC(C)[C@@H]1CC[C@@H](C)C[C@@]1(O)C(=O)NCC(=O)c1ccc(O)cc1 [Example 143, (1S,2S,5R)-1-hydroxy-N-[2-(4-hydroxyphenyl)-2-oxo-ethyl]-2-isopropyl-5-methyl-cyclohexanecarboxamide] | 5.6 | 7.3 | 1100 | 985
